This test relates to 677734-321-R-J1-PDC complex spheroid viability. Description: Anticancer human tumor 677734-321-R-J1-PDC patient-derived soft tissue sarcoma cell line growth inhibition [POLQ]. To be noted: for viability, T/C: stronger effect = lower value. As to the method:
Multicellular complex tumor spheroid response to Polymerase (POL) inhibitors (novobiocin, ART-558, RP6685) in combination with a variety of drugs and investigational agents in selected tumor cell lines
The POL inhibitors (novobiocin, ART-558, and RP6685) were evaluated both individually and in combination with standard of care and investigational anticancer small molecules within a complex spheroid model of solid tumors. . Complex spheroids include a stromal component modeled by human endothelial cells (HUVEC) and fibroblasts modeled by human mesenchymal stem cells (MSCs). The concentration ranges selected for each drug and investigational agent were based upon clinically achievable concentrations if the clinical Cmax of the agent was known.
Compounds. The drugs and investigational agents: novobiocin (NSC847541), ART-558 (NSC835418), RP-6685 (NSC848927), peposertib (NSC802822), ceralasertib (NSC780249), elimusertib (NSC800525), camonsertib (NSC841442), AZD-1390 (NSC803789), olaparib (NSC753686), talazoparib (NSC767125), rucaparib (NSC756644), sotorasib (NSC818433), MRTX-1133 (NSC836407), SN-38 (NSC673596), topotecan (NSC609699), epotoside (NSC141540), doxorubicin (NSC123127), gemcitabine (NSC613327), 5-fluorouracil (NSC19893), paclitaxel (NSC125973), vemurafenib (NSC761431), MSA-2 (NSC828583), SN-011 (NSC837082), adavosertib (NSC754352), prexasertib (NSC758257), carboplatin (NSC241240) and oxaliplatin (NSC266046), were obtained from the National Cancer Institute (NCI) Developmental Therapeutics Program Chemical Repository (21). The FDA-approved anticancer drug set is available from the Developmental Therapeutics Program at https://dtp.cancer.gov/organization/dscb/obtaining/. […] The stock solutions were prepared in dimethyl sulfoxide (DMSO, Sigma-Aldrich, St. Louis, MO, cat. D2650), except for the platinum compounds which were prepared in saline (Quality Biological, Gaithersburg, MD, cat. 114-055-101), at 800-fold the tested concentration and stored at -70 degrees C prior to their use. All drugs and investigational agents were tested over a range starting from a high concentration at or near the clinical Cmax and decreasing in half-log increments. If the clinical Cmax for an agent had not been determined, the highest concentration tested was 10 microM, except for SN-38, which was tested at a high concentration of 1 microM.
Cell Culture. All cells were maintained in an incubator at 37 degrees C and 5% CO2 with 95% humidity. The PDC lines were cultured according to standard operating procedures established by the NCI PDMR (https://pdmr.cancer.gov). Table 3 of the manuscript, lists the cell lines along with the number of the three cell types plated to form the mct-spheroids and media for tumor cell growth. After thawing, all PDC lines, except 997537-175-T-J1-PDC and 415267-285-R-J2-PDC, were cultured in Matrigel-coated flasks prepared with a working solution of 1X Ham's F-12 nutrient mix, without supplementation (Thermo Fisher Scientific, cat. 11765054), 100 U/mL penicillin-streptomycin (Thermo Fisher Scientific, cat. 15140122), and 2.5% Matrigel (Corning Inc., Corning, NY, cat. 354248) for the first three passages. The two PDC lines 997537-175-T-J1-PDC and 415267-285-R-J2-PDC were cultured on uncoated flasks. The 857933-349-R-J2-PDC line was cultured in 6C/Colon 1B media containing advanced DMEM/F-12 (Thermo Fisher Scientific, cat. 12634028), 10 mM HEPES (Thermo Fisher Scientific, cat. 15630080), 1X GlutaMAX supplement (Thermo Fisher Scientific, cat. 35050061), 0.1 mg/mL primocin (InvivoGen, San Diego, CA, cat. ant-pm-2), 10% defined fetal bovine serum, heat inactivated (HyClone Laboratories Inc., Logan, UT, cat. SH30070.03HI), 50% L-WRN conditioned media (ATCC, cat. CRL-3276), 1.25 mM N-Acetyl-L-cysteine (Sigma-Aldrich, cat. A9165), 10 mM nicotinamide (Sigma-Aldrich, cat. N0636), 1X B-27 supplement (Thermo Fisher Scientific, cat. 17504044), 1X N-2 supplement (Thermo Fisher Scientific, cat. […]

The structures appear in SMILES notation. Where “and” joins values, the source holds several entries; their conditions need not be identical. Identical values can stand only once.

A word on the viability, T/C: it is the ratio of treated to control. A word on the IC50: it is the concentration that gives 50% inhibition.
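Note: spheroids exposed to compounds for one week.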

`C#Cc1c(F)ccc2cc(O)cc(-c3ncc4c(N5CC6CCC(C5)N6)nc(OCC56CCCN5CC(F)C6)nc4c3F)c12` (stereo not drawn): the viability, T/C is 109% and 110% and 105% (compound 0.0316 µM); 105% and 104% and 101% (compound 0.1 µM); 99.2% and 115% and 96.7% (compound 0.316 µM); 105% and 96.8% and 101% (compound 1 µM); 107% and 113% and 97.8% (compound 3.16 µM); 102% (2×) and 80.7% (compound 10 µM). Moreover, the IC50 (curve of compound) was over 10 µM.

Regarding `CC1COCCN1c1cc(C2(O)CC3CCC(C2)O3)c2cnn(-c3ccn[nH]3)c2n1` (stereo not drawn), the viability, T/C by setting is: (compound 0.0316 µM) 81.7% and 83.6% and 51%; (compound 0.1 µM) 51.1% and 44.5% and 17.5%; (compound 0.316 µM) 25.6% and 22.2% and 9.65%; (compound 1 µM) 20.1% and 15.7% and 9.53%; (compound 3.16 µM) 17.1% and 14.3% and 7.61%; (compound 10 µM) 17.9% and 14.2% and 4.79%. Moreover, the IC50 (curve of compound) is 0.105 µM and 0.0851 µM and 0.0324 µM.

As to `CCc1cc2c(N3CCc4c(cc(Cn5ccnc5)cc4-c4cn(C)nc4C(F)(F)F)C3=O)cc(C)nc2c(OC)n1`, the viability, T/C was 108% and 84.9% and 95.3% (compound 0.0316 µM); 104% and 93.7% and 115% (compound 0.1 µM); 100% and 83.8% and 86.7% (compound 0.316 µM); 85.4% and 79.7% and 96.4% (compound 1 µM); 76.5% and 55.1% and 70.1% (compound 3.16 µM); 56.7% and 37.7% and 41.4% (compound 10 µM). Further, the IC50 (curve of compound) is > 10 µM and 4.46 µM and 7.11 µM.

As to `CCc1cc2c(N3CCc4c(cc(Cn5ccnc5)cc4-c4cn(C)nc4C(F)(F)F)C3=O)ccnc2c(OC)n1`, the viability, T/C was 108% and 98.5% and 105% (compound 0.0316 µM); 109% (2×) and 102% (compound 0.1 µM); 98% and 85.5% and 106% (compound 0.316 µM); 100% and 93.7% and 73.7% (compound 1 µM); 92.4% and 69% and 64.4% (compound 3.16 µM); 63.6% and 50.2% and 39.2% (compound 10 µM). The IC50 (curve of compound) is > 10 µM and 5.58 µM.

On to `COc1cc2cc(C(=O)CCC(=O)O)sc2cc1OC`, for which the viability, T/C reads like this: (compound 0.0316 µM) 100% and 108% and 101%; (compound 0.1 µM) 94.4% and 93.7% and 102%; (compound 0.316 µM) 82% and 105% and 114%; (compound 1 µM) 95.8% and 98.6% and 106%; (compound 3.16 µM) 97.5% and 107% and 106%; (compound 10 µM) 105% and 99.9% and 113%. Besides, for the setting “curve of compound”, the IC50 is over 10 µM.

For the compound `Nc1ccc(C#CCN(C(=O)Cc2ncc(C(F)(F)F)cc2C(F)(F)F)c2ccc(F)cc2)nn1`, the viability, T/C (compound 0.1 µM) is 104% [middle of 13 runs]; the viability, T/C (compound 0.316 µM) was 103% [middle of 13 runs]; the viability, T/C (compound 3.16 µM) is 99.7% [middle of 13 runs]. Where the note is “compound alone, run of 12/05/2023”, the half-maximal inhibitory concentration (IC50) is over 10 µM.

As for `O=C(Nc1ccc(O)c(NS(=O)(=O)c2ccc(F)cc2)c1)c1ccc(-c2ccccc2)cc1`, the viability, T/C reads like this: (compound 0.0316 µM) 96.9% and 104% and 110%; (compound 0.1 µM) 100% and 107% and 109%; (compound 0.316 µM) 108% and 112% and 104%; (compound 1 µM) 94.2% and 98.8% and 106%; (compound 3.16 µM) 68.3% and 79.4% and 89.6%; (compound 10 µM) 21.9% and 20.6% and 32.8%. Besides, the IC50 (curve of compound) is 4.96 µM and 5.6 µM and 7.07 µM.

As to `Nc1ccn(C2OC(CO)C(O)C2(F)F)c(=O)n1` (stereo not drawn) + COC1C(OC(N)=O)C(O)C(Oc2ccc3c(O)c(NC(=O)c4ccc(O)c(CC=C(C)C)c4)c(=O)oc3c2C)OC1(C)C, the IC50 was under 0.0316 µM (curve of first compound, second compound 0.0316 µM); under 0.0316 µM (curve of first compound, second compound 0.1 µM); under 0.0316 µM (curve of first compound, second compound 0.316 µM); under 0.0316 µM (curve of first compound, second compound 1 µM); under 0.0316 µM (curve of first compound, second compound 3.16 µM); under 0.0316 µM (curve of first compound, second compound 10 µM). Moreover, the viability, T/C is, setting by setting: (second compound 0.0316 µM, first compound 0.0316 µM) 32.5%; (second compound 0.0316 µM, first compound 0.1 µM) 15.3%; (second compound 0.0316 µM, first compound 0.316 µM) 13.9%; (second compound 0.0316 µM, first compound 1 µM) 11.8%; (second compound 0.0316 µM, first compound 3.16 µM) 10.9%; (second compound 0.0316 µM, first compound 10 µM) 8.72%. In addition, the viability, T/C runs as follows: (second compound 0.1 µM, first compound 0.0316 µM) 38.9%; (second compound 0.1 µM, first compound 0.1 µM) 17.6%; (second compound 0.1 µM, first compound 0.316 µM) 14%; (second compound 0.1 µM, first compound 1 µM) 12.8%; (second compound 0.1 µM, first compound 3.16 µM) 8.3%; (second compound 0.1 µM, first compound 10 µM) 9.61%. The viability, T/C reads like this: (second compound 0.316 µM, first compound 0.0316 µM) 30.9%; (second compound 0.316 µM, first compound 0.1 µM) 16.8%; (second compound 0.316 µM, first compound 0.316 µM) 15.9%; (second compound 0.316 µM, first compound 1 µM) 13.1%; (second compound 0.316 µM, first compound 3.16 µM) 12.1%; (second compound 0.316 µM, first compound 10 µM) 8.63%. Besides, the viability, T/C is, setting by setting: (second compound 1 µM, first compound 0.0316 µM) 30.2%; (second compound 1 µM, first compound 0.1 µM) 17.2%; (second compound 1 µM, first compound 0.316 µM) 11.1%; (second compound 1 µM, first compound 1 µM) 14.3%; (second compound 1 µM, first compound 3.16 µM) 11.7%; (second compound 1 µM, first compound 10 µM) 7.96%. For the same compound, the viability, T/C is 30.1% (second compound 3.16 µM, first compound 0.0316 µM); 16.6% (second compound 3.16 µM, first compound 0.1 µM); 12.9% (second compound 3.16 µM, first compound 0.316 µM); 14.5% (second compound 3.16 µM, first compound 1 µM); 11.4% (second compound 3.16 µM, first compound 3.16 µM); 8.33% (second compound 3.16 µM, first compound 10 µM). The viability, T/C runs as follows: (second compound 10 µM, first compound 0.0316 µM) 39.1%; (second compound 10 µM, first compound 0.1 µM) 12.8%; (second compound 10 µM, first compound 0.316 µM) 12.1%; (second compound 10 µM, first compound 1 µM) 13.1%; (second compound 10 µM, first compound 3.16 µM) 11.1%; (second compound 10 µM, first compound 10 µM) 11%.

These data come from PubChem BioAssay AID1963842 (Molecular Pharmacology Branch, DTP, NCI, 2024).
